# Laboratory results from ChEMBL document CHEMBL1158208, “Raocyclamides A and B, Novel Cyclic Hexapeptides Isolated from the Cyanobacterium Oscillatoria raoi” (J Nat Prod, 1996).
# What was measured:
# [1] = Inhibition of Paracentrotus lividus embryo division
# [2] = Inhibition of Paracentrotus lividus embryo division at 250 ug/mL
ED100 [1],Activity [2],Compound
30 µg/mL,,CC[C@H](C)[C@H]1NC(=O)c2coc(n2)[C@H](C)NC(=O)[C@H]2COC(=N2)[C@@H](Cc2ccccc2)NC(=O)c2csc1n2 [RAOCYCLAMIDE A]
,Not Active,CC[C@H](C)[C@H]1NC(=O)c2coc(n2)[C@H](C)NC(=O)[C@@H](CO)NC(=O)[C@@H](Cc2ccccc2)NC(=O)c2csc1n2 [RAOCYCLAMIDE B]
